{"source": "patent US12083109B2", "about": "“Neurokinin antagonists and uses thereof” (California Institute of Technology, priority 2017, dated 2024)", "target": "T1, hM4DREADD in Tac2+ neurons (Homo sapiens, UniProt P08173, A203G/Y113C)", "T1 construct": "host or cells: Tac2+ neurons of Tac2-Cre mice (dBNSTa, DMH or CeA), transduced in vivo with AAV2-EF1a-DIO-hM4D-mCherry", "T1 sequence (P08173 1-479 Y113C/A203G)": "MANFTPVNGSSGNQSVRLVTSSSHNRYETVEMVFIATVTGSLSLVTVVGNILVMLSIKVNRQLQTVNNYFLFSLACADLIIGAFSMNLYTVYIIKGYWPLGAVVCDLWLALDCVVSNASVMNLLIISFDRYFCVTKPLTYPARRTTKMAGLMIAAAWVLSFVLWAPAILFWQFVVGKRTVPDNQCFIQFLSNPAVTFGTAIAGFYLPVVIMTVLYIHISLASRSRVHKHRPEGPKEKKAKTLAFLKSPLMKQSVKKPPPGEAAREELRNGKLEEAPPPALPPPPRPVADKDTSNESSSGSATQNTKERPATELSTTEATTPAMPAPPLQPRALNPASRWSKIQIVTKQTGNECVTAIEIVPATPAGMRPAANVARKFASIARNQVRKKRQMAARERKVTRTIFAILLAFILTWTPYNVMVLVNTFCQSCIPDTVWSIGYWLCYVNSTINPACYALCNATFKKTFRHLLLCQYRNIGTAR", "test": "Looming disk assay, CNO silencing of Tac2+ neurons (hM4DREADD)", "format": "in vivo, mouse", "settings": "SIS Tac2-Cre mice, CNO 5 mg/kg i.p.", "procedure": "Freezing behavior to presentation of an overhead looming disk proceeded as previously described (Kunwar et al., 2015; Yilmaz and Meister, 2013; incorporated by reference in their entirety). Briefly, mice were transported to a novel behavioral testing room. After 5 minutes of acclimation, mice were placed inside a novel, custom-built open top Plexiglas arena (48×48×30 cm) covered with a flat screen monitor placed directly above and with illumination provided by infrared LEDs (Marubeni). Mice were given a 5 minute baseline period in the arena, after which entry into the center of the arena triggered presentation of a single, 10 second overhead looming disk stimulus (comprised of a single looming disk presentation 0.5 seconds in duration, which was repeated 10 times with an inter-stimulus interval of 0.5 seconds). The stimulus was controlled by custom MATLAB code (M. Meister, Caltech) run on a dedicated computer in an adjacent room. Mice remained in the area for an additional 2 minutes before being transported back. Behavior was recorded using a video recorder attached to a laptop equipped with video capture software (Corel VideoStudio Pro). Acute freezing behavior to the looming disk (“during”) as well as in the 30 seconds following the last disk (“post”) were scored manually (Behavior Annotator, MATLAB) by an observer blind to environmental conditions. […]", "note": "“Also recorded” adds a separate entry of the source.", "data": [{"smiles": "C[N+]1([O-])CCN(C2=Nc3cc(Cl)ccc3Nc3ccccc32)CC1", "note": "[CNO, clozapine-N-oxide]", "values": [{"measurement": "acute (during) freezing to looming disk", "setting": "hM4DREADD in CeA", "value": "blocked; also recorded: suppressed"}, {"measurement": "persistent (post) freezing to looming disk", "setting": "hM4DREADD in dBNSTa", "value": "blocked; also recorded: selectively attenuated"}]}]}
